Measurements from ChEMBL document CHEMBL2429726, “Gamma secretase modulators” (ACS Med Chem Lett, 2013).
pIC50: −log10 of the molar value.

Legend:
Rattus norvegicus = assay: Antialzheimer activity in CD rat assessed as reduction of amyloid beta42 level in CSF at 30 mg/kg, po after 3 hrs relative to control; assay type: functional; set-up: scale not given: the % may be the effect or the level left
Gamma-secretase = assay: Inhibition of gamma secretase-mediated amyloid beta42 production in HEK293 cells expressing APP after 5 hrs by sandwich immunoassay; assay type: cell-based, Homo sapiens

Row | Compound | Activity (Rattus norvegicus) | pIC50 (Gamma-secretase)
1 | COc1cc(-c2noc3c2CCCC3(O)c2cc(F)cc(F)c2)ccc1-n1cnc(C)c1 (stereo unspecified) | 20% | 6.72
2 | COc1cc(-c2noc3c2CCCC3Nc2ccc(F)cc2)ccc1-n1cnc(C)c1 (stereo unspecified) | 58% | 7.41
3 | COc1cc(-c2noc3c2CCCC3NCc2cc(F)cc(F)c2)ccc1-n1cnc(C)c1 (stereo unspecified) | 20% | 7.54
